PubChem BioAssay (NCI)
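Five concentrations, 48 hours, 96-well plates. TGI marks complete inhibition of growth.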

Experiments:
Experiment in all cases: DTP human tumour cell line panel, 48 h
HCT-15 colon = tested on: HCT-15 colon
786-0 renal = tested on: 786-0 renal
TK-10 renal = tested on: TK-10 renal
OVCAR-4 ovarian = tested on: OVCAR-4 ovarian
UO-31 renal = tested on: UO-31 renal
DU-145 prostate = tested on: DU-145 prostate
HOP-62 NSCLC = tested on: HOP-62 NSCLC
K-562 leukemia = tested on: K-562 leukemia
MDA-MB-231 breast = tested on: MDA-MB-231 breast
HCC-2998 colon = tested on: HCC-2998 colon

Measured: TGI

COc1cc(NS(C)(=O)=O)ccc1Nc1cc(C)[nH]c2ccc3nccc3c12
not listed: HCC-2998 colon
> 100 µM: all other assays above

COc1ccc(C2=N/C(=C\c3ccccc3)C(=O)O2)cc1
> 100 µM: HCT-15 colon | TK-10 renal | HCC-2998 colon | OVCAR-4 ovarian | HOP-62 NSCLC | K-562 leukemia

O=C(Nc1nccs1)c1c(O)nc2sccn2c1=O
not listed: 786-0 renal | K-562 leukemia
> 10 µM: all other assays above

CN(C)C1(N(C)C)Oc2c(c(=O)n(C)c(=O)n2C)C(c2ccc(Br)cc2)C1(F)F (centres undefined)
not listed: K-562 leukemia
> 100 µM: all other assays above

CCOC(=O)Cn1c(=O)c2nc(SC)sc2n(-c2ccccc2)c1=O
not listed: OVCAR-4 ovarian | DU-145 prostate
> 100 µM: all other assays above

O=C(CC(C(=O)c1ccsc1)c1ccc2c(c1)OCO2)c1ccccc1 (centres undefined)
not listed: MDA-MB-231 breast
> 100 µM: all other assays above

N#CC12C(=O)N=C(N)C1(C#N)C(c1ccco1)NC1=C2CCCC1 (centres undefined)
not listed: K-562 leukemia
> 100 µM: all other assays above

CC1=NS(=O)(=O)c2ccccc2N1
not listed: DU-145 prostate | MDA-MB-231 breast
> 100 µM: all other assays above

CC1=C[C@@H]2Cc3nc4cc(Cl)ccc4c(N)c3[C@H](C1)C2
14.3 µM: K-562 leukemia
19.5 µM: TK-10 renal
18.2 µM: OVCAR-4 ovarian
28.7 µM: MDA-MB-231 breast
19 µM: 786-0 renal
24 µM: HOP-62 NSCLC
27.3 µM: DU-145 prostate
24.3 µM: HCT-15 colon
17.7 µM: UO-31 renal

O=C(O)CCC(=O)OC1N=C(c2ccccc2Cl)c2cc([N+](=O)[O-])ccc2NC1=O (centres undefined)
not listed: K-562 leukemia
> 100 µM: all other assays above

C=CCSc1nnc2cc(CN3CCCC3)c(-c3ccc(Cl)cc3)nn12
30.4 µM: UO-31 renal
45.4 µM: HOP-62 NSCLC
33.7 µM: 786-0 renal
35.6 µM: MDA-MB-231 breast
43.7 µM: TK-10 renal | DU-145 prostate
> 100 µM: K-562 leukemia
45.1 µM: HCT-15 colon
48 µM: OVCAR-4 ovarian

COc1ccc2c(c1)/C(=C\c1c(Cl)nc3sc(C)cn13)C(=O)N2
19.4 µM: HOP-62 NSCLC
19.1 µM: TK-10 renal
17.7 µM: MDA-MB-231 breast
9.56 µM: K-562 leukemia
18.3 µM: HCC-2998 colon
15.1 µM: 786-0 renal
22.4 µM: HCT-15 colon
18.2 µM: DU-145 prostate
19 µM: UO-31 renal

CC1CCC(C(=O)O)(C(Br)C(=O)O)CC1 (centres undefined)
not listed: HCC-2998 colon
> 100 µM: all other assays above

CSC(=S)N(C)C
not listed: OVCAR-4 ovarian | HCC-2998 colon
> 100 µM: all other assays above

NS(=O)(=O)c1cc2c(cc1Cl)NC(CCC(=O)O)=NS2(=O)=O
not listed: HCC-2998 colon
> 100 µM: all other assays above

CCOC(=O)c1ccc(NCC#CCN2CCOCC2)cc1
not listed: TK-10 renal | HCC-2998 colon
> 100 µM: all other assays above

[O-][n+]1ccccc1Sc1nc(Sc2cccc[n+]2[O-])nc(Sc2cccc[n+]2[O-])n1
2.93 µM: HCT-15 colon
3.82 µM: TK-10 renal
2.73 µM: MDA-MB-231 breast
4.74 µM: OVCAR-4 ovarian
9.17 µM: HOP-62 NSCLC
2.53 µM: 786-0 renal
2.89 µM: HCC-2998 colon
3.25 µM: UO-31 renal
10.2 µM: DU-145 prostate

Cc1cc(N(CCOS(C)(=O)=O)CCOS(C)(=O)=O)ccc1C=O
94.6 µM: MDA-MB-231 breast
> 100 µM: TK-10 renal | K-562 leukemia
45.3 µM: OVCAR-4 ovarian
71.8 µM: HCT-15 colon
24.6 µM: HCC-2998 colon
35.1 µM: UO-31 renal

CSc1nsc(-c2ccccc2)[s+]1
not listed: DU-145 prostate | MDA-MB-231 breast
> 100 µM: all other assays above

COc1cc(/C=C/C(=O)CC(=O)/C=C/c2ccc(OC(=O)CCCCC3CCSS3)c(OC)c2)ccc1OC(=O)CCCCC1CCSS1 (centres undefined)
not listed: HCC-2998 colon
> 100 µM: all other assays above
